Experimental data reported in patent US20090304712A1, “Neuronal Cell Death Inhibitor and Screening Method” (NATIONAL UNIVERSITY CORPORATION NAGOYA UNIVERSITY, priority 2006, published 2009).

Tests used:
[1] = test system: mouse cerebral cortex primary neurons; experiment: Neuritic beading degeneration in neurons incubated with activated microglia conditioned medium; assay type: cell-based; settings: for number of neurons with neuritic beading degeneration: 24 h
Procedure: (§1) Mouse primary microglia were isolated from primary mixed glial cell cultures (obtained from newborn C57BL/6J mice brains) by the ‘shaking off’ method on the 14th culture day or later (Suzumura, A. et al. MHC antigen expression on bulk isolated macrophage-microglia from newborn mouse brain: induction of 1a antigen expression by gamma-interferon. J. Neuroimmunol. 15, 263-278 (1987)).
In addition, mouse cerebral cortex primary neurons were prepared from the cerebral cortices of C57BL/6J mice at embryonic 17th day, and were plated on poly-ethyleneimine (PEI)-coated cover slips. Neurons were used at 10th to 13th culture day (Takeuchi et al. Neuritic beading induced by activated microglia is an early feature of neuronal dysfunction toward neuronal death by inhibition of mitochondrial respiration and axonal transport. J. Biol. Chem. 280, 10444-10454 (2005)).
(§2) Microglia were cultured with the culture medium (approximately 5×10^4 cells/well, Neuron Medium (manufactured by Sumitomo Bakelite Co., LTD.) administered with 1 μg/ml of LPS or 100 ng/ml of cytokines (IL-1β, IL-6, IL-10, IFN-γ, or TNF-α), respectively. Microglia were incubated under 100% humidity and 5% CO2 at 37° C. for 24 hours. Note that as a control, microglia were cultured similarly except that no cytokine was added.
Neurons in a 24-well plate (5×10^4 cells/well) were incubated with 500 μl of conditioned medium of microglia activated as above. […]
(§3) The various neurons obtained as above were cultured for 24 hours, then, neurons in each well were measured for both the number of neurons with neuritic beading degeneration and the number of dead neurons. […] The ratio of neurons with neuritic beading degeneration was calculated as a percentage of total neurons. Note that neurons in duplicate wells were assessed blindly in three independent trials. In addition, the number of dead neurons was assessed by the dye-exclusion method with propidium iodide (PI). […] The ratio of dead neurons was calculated as a percentage of PI-positive cells among total neurons.

[2] = test system: mouse cerebral cortex primary neurons; experiment: Dead neurons (propidium iodide dye-exclusion) in neurons incubated with activated microglia conditioned medium; assay type: cell-based; settings: 24 h
Procedure: as §1
In addition, mouse cerebral cortex primary neurons were prepared from the cerebral cortices of C57BL/6J mice at embryonic 17th day, and were plated on poly-ethyleneimine (PEI)-coated cover slips. […]
as §3

activated microglia = experiment: Glutamate concentration in neuron culture medium (glutamate released from activated microglia), colorimetric assay; assay type: cell-based, mouse; settings: 24 h; for extracellular glutamate concentration: versus no drug (TNF)
Procedure: as §1, §2
Neurons in a 24-well plate (5×10^4 cells/well) were incubated with 500 μl of conditioned medium of microglia activated as above. Neurons were administered similarly non-activated microglia conditioned medium to serve as a control for the indirect stimulation group. […]
In the present example, the amount of glutamate released from microglia stimulated with various cytokines, intracellular ATP concentration and mitochondrial damage in neurons incubated with conditioned medium were measured. […]
After incubation for 24 hours as above, the concentration of glutamate in the conditioned medium of each neuronal culture well was measured using Glutamate Assay Kit colorimetric assay (manufactured by Yamasa Corporation) according to the protocol thereof, measuring the absorption at 600 nm in a multiplate reader. […]
The various neurons prepared as above were cultured for 24 hours, then, glutamate concentration, the numbers of neurons with neuritic beading degeneration and dead neurons were measured for neurons in each neuronal culture well. Quantification of glutamate concentration was carried out similarly to Example 2, measurements of the numbers of neurons with neuritic beading degeneration and dead neurons were carried out similarly to Example 1. […]

[3] = test system: ischemia-induced delayed neuronal cell death model; experiment: Ischemia-induced delayed neuronal cell death model; assay type: in vivo, Mongolian gerbils; settings: for delayed neuronal cell death (micrographs of hippocampal CA1, FIG. 15) / number of surviving neurons per 100 μm in the hippocampal CA1 region: 7 days after ischemia; for number of surviving neurons per 100 μm in the hippocampal CA1 region: p<0.001 versus control
Procedure: In the present example, the effect of gap junction inhibitor and glutaminase inhibitor on neuronal cell death was evaluated using ischemia-induced delayed neuronal cell death model. Note that all protocols were approved by the Animal Experiment Committee of Nagoya University. Note that the animal model in the present example corresponds to a model of ischemic disorder, which is a nervous system disease.
According to reference by Imai et al. (Imai F, Sawada M, Suzuki H, Zlokovic B V, Kojima J, Kuno S, Nagatsu T, Nitatori T, Uchiyama Y, Kanno T., Exogenous microglia enter the brain and migrate into ischemic hippocampal lesions. et al. Neuroscience Letter. 272 (2): 127-130. 1999)□ adult male Mongolian gerbils, 10-12 weeks old and weighing approximately 70 g, were anesthetized with sevoflurane maintaining rectal temperature at 37° C. Global forebrain ischemia was produced transiently by occluding both common carotid arteries for 5 minutes using aneurysm clips.
Administration of the gap junction inhibitor carbenoxolone (CBX) was carried out in the following three groups. That is to say, the doses were 20 mg/kg body weight (CBX1), 2 mg/kg body weight (CBX1/10) and 0.2 mg/kg body weight (CBX1/100). Administration of the glutaminase inhibitor 6-diazo-5-oxo-L norleucine (DON) was carried out in the following three groups. That is to say, the doses were 1.6 mg/kg body weight (DON1), 0.16 mg/kg body weight (DON1/10) and 0.016 mg/kg body weight (DON1/100). CBX or DON was administered intraperitoneally every other day from the day of ischemia. Note that control animals were injected with the equal volume of phosphate-buffered saline (PBS).
Seven days after ischemia, gerbils were anesthetized and transcardically perfused with 4% paraformaldehyde in PBS. The brains were removed, embedded in O.C.T. compound (manufactured by Sakura Finetech) and then frozen in liquid nitrogen. Frozen sections were prepared with a cryostat (8 μm thick), were mounted onto a slide glass and were stained with haematoxylin and eosin. To assess the effect of drug treatment on delayed neuronal death, the number of surviving neurons per 100 μm in the hippocampal CA1 region was counted under a microscope.

[4] = test system: experimental autoimmune encephalomyelitis (EAE) model; experiment: MOG-induced experimental autoimmune encephalomyelitis (EAE) model; assay type: in vivo, C57BL/6J mice; settings: for EAE onset day (EAE clinical score becomes 1 or greater) / number of severe sick days (EAE clinical score four or greater): p<0.05
[5] = test system: mouse cerebral cortex primary neurons; experiment: Neuronal intracellular ATP concentration, chemiluminescent method; assay type: cell-based; settings: conditioned medium of microglia treated with 100 ng/ml TNF-α; 24 h
Procedure: (§4) In the present example, the amount of glutamate released from microglia stimulated with various cytokines, intracellular ATP concentration and mitochondrial damage in neurons incubated with conditioned medium were measured. […] The evaluations were carried out by the following methods.
After incubation of the various neurons obtaine for 24 hours as above, intracellular ATP in each neuronal culture well was measured using AposSENSOR Cell Viability Assay Kit (manufactured by Bio Vision) according to the protocol thereof, by the chemiluminescent method. ATP concentration was calculated as a percentage of control.

[6] = test system: mouse cerebral cortex primary neurons; experiment: Neuronal mitochondrial damage, MTS assay; assay type: cell-based; settings: conditioned medium of microglia treated with 100 ng/ml TNF-α; 24 h
Procedure: as §4
After incubation for 24 hours as above, the extent of neuronal mitochondria damage in each neuronal culture well was measured using CellTiter96 Aqueous One Solution assay (manufactured by Promega) according to the protocol, performing the MTS method, measuring the absorption at 490 nm in a multiplate reader. Note that the assays were carried out in six independent trials.

connexin-32 (C×32) = experiment: Microglial cell surface expression of connexin-32 by flow cytometry; assay type: cell-based, mouse; settings: microglia stimulated with 100 ng/ml TNF-α, 24 h
Procedure: In the present example, an analysis of LPS- or TNF-α-stimulated microglial cell surface expression of connexin-32 (C×32), which is a major constitutive component of gap junction, was carried out with a flow cytometer. The preparation of microglia was carried out similarly to Example 1, and microglia activation was carried out similarly to Example 4. To Detect C×32 anti-mouse C×32 antibody (manufactured by Chemicon) was used.

[7] = 100 μM CBX with activated microglia conditioned medium
[8] = CBX 0.2, 2, 20 mg/kg i.p. every other day
[9] = CBX1/10: 2 mg/kg i.p. every other day
[10] = 1 mM DON with activated microglia conditioned medium
[11] = DON 0.016, 0.16, 1.6 mg/kg i.p. every other day
[12] = DON1: 1.6 mg/kg i.p. every other day

Sequence of connexin-32 (C×32) (P28230 whole entry): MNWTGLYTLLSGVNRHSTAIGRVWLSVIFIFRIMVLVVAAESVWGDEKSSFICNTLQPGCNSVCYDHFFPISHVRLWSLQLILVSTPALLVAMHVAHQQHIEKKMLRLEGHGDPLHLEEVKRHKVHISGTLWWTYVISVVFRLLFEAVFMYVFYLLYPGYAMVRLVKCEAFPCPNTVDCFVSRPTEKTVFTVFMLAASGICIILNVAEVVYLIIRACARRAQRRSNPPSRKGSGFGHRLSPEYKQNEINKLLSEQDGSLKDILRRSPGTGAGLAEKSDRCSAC

## CC1(C)[C@@H](OC(=O)CCC(=O)O)CC[C@]2(C)[C@H]3C(=O)C=C4[C@@H]5C[C@@](C)(C(=O)O)CC[C@]5(C)CC[C@@]4(C)[C@]3(C)CC[C@@H]12 [CBX, carbenoxolone disodium]
[1]; [7]
  number of neurons with neuritic beading degeneration: inhibitory action
[2]; [7]
  number of dead neurons: inhibitory action
Activated microglia; [7]
  extracellular glutamate concentration: reduced to the control level
[3]; CBX 0.2, 2, 20 mg/kg body weight i.p. every other day from day of ischemia
  delayed neuronal cell death (micrographs of hippocampal CA1, FIG. 15): clearly inhibited
[3]; [8]
  dose dependence of decrease in neuronal death: dose-dependent manner
  number of surviving neurons per 100 μm in the hippocampal CA1 region: significantly protected
[4]; CBX 0.2, 2, 20 mg/kg i.p. every other day from day of immunization
  EAE clinical symptoms (clinical score course, FIG. 17): inhibited
[4]; [9]
  peak clinical score: significantly decreased
  EAE onset day (EAE clinical score becomes 1 or greater): significantly delayed
  number of severe sick days (EAE clinical score four or greater): significantly reduced

## [N-]=[N+]=CC(=O)CC[C@H](N)C(=O)O [DON, 6-diazo-5-oxo-L-norleucine]
[1]; [10]
  number of neurons with neuritic beading degeneration: inhibitory action
[2]; [10]
  number of dead neurons: inhibitory action
Activated microglia; [10]
  extracellular glutamate concentration: reduced to the control level
[3]; DON 0.016, 0.16, 1.6 mg/kg body weight i.p. every other day from day of ischemia
  delayed neuronal cell death (micrographs of hippocampal CA1, FIG. 15): clearly inhibited
[3]; [11]
  dose dependence of decrease in neuronal death: dose-dependent manner
  number of surviving neurons per 100 μm in the hippocampal CA1 region: significantly protected
[4]; DON 0.016, 0.16, 1.6 mg/kg i.p. every other day from day of immunization
  EAE clinical symptoms (clinical score course, FIG. 17): inhibited
[4]; [12]
  EAE onset day (EAE clinical score becomes 1 or greater): significantly delayed
  number of severe sick days (EAE clinical score four or greater): significantly reduced

## TNF-α
[1]; indirect stimulation: conditioned medium of microglia treated with 100 ng/ml cytokine for 24 h, neurons cultured 24 h
  ratio of neurons with neuritic beading degeneration as a percentage of total neurons: approximately 100%
Activated microglia; conditioned medium of microglia treated with 100 ng/ml TNF-α
  glutamate concentration in neuron culture medium: significantly high concentration
[5]
  neuronal intracellular ATP concentration: significantly low
[6]
  extent of mitochondrial damage (MTS): significantly mild
connexin-32 (C×32)
  expression of gap junction (C×32) onto the cell surface of microglia: augmented
